Data as given in patent US9980973B2, “Bicyclic heterocycle compounds and their uses in therapy” (ASTEX THERAPEUTICS LIMITED, priority 2012, dated 2018).
Where a name gives a salt, the structure may show the parent alone. Read-outs that look alike come from different tables or passages of the source.

Tests used:
[1] = target: T1, BIR3 domain of human XIAP (Homo sapiens, UniProt P98170); assay: XIAP in vitro competitive displacement binding assay (fluorescence polarization); conditions: for inhibition at 0.04 µM: 1 h, PI at 0.04 μM, read-out: Xiap IC50 or PI μM (PI)
T1 construct: BIR3 domain of human XIAP (residues 252-350) fused to a His-tag; His-tag (cleaved yes); made in house; host or cells: Escherichia coli

[2] = tested on: EVSA-T (human breast carcinoma); assay: Anti-proliferative activity, Alamar Blue assay, EVSA-T; assay type: cell-based
[3] = Homo sapiens, EVSA-T, 72 h, EVSA-T cells, 72 hours, Alamar Blue, read-out: EVSA-T prolif
[4] = Homo sapiens, EVSA-T, read-out: EC50 in EVSA-T cell line assays
[5] = EVSA-T cells, 72 hours, Alamar Blue, dihydrochloride, read-out: EVSA-T prolif

T1 sequence (P98170 252-350): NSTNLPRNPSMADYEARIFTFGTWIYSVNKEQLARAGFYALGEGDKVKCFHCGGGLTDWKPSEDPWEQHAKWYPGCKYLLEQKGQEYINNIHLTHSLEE

CC1COCCN1C[C@H]1CN[C@H](C)CN1CC(=O)N1CC(C)(C)c2ccc(Cc3ccc(F)cc3)cc21 (stereo partly drawn) [Example 45, 1-{6-[(4-Fluorophenyl)methyl]-3,3-dimethyl-2,3-dihydro-1H-indol-1-yl}-2-[(2R,5R)-5-methyl-2-{[(3R)-3-methylmorpholin-4-yl]methyl}piperazin-1-yl]ethan-1-one, dihydrochloride] showed an inhibition at 0.04 µM [1] of 52%, an EC50 [2, 3] of 3.5 nM and an EC50 [2, 4] of less than 1000 nM.

Work on C[C@@H]1CN(CC(=O)N2CC(C)(C)c3ncc(C(O)c4ccccc4F)cc32)[C@@H](CN2[C@H](C)COC[C@H]2C)CN1 (single isomer, unassigned) [Example 107, 2-[(2R,5R)-2-{[(3R,5R)-3,5-Dimethylmorpholin-4-yl]methyl}-5-methylpiperazin-1-yl]-1-{6-[(R or S)-(2-fluorophenyl)-(hydroxy)methyl]-3,3-dimethyl-1H,2H,3H-pyrrolo[3,2-b]pyridin-1-yl}ethan-1-one dihydrochloride] yielded an inhibition at 0.04 µM [1] of 57%, an EC50 [2, 5] of 7.1 nM and an EC50 [2, 4] of less than 1000 nM.

C[C@@H]1CN(CC(=O)N2CC(C)(C)c3ncc(Cc4ccc(F)cc4)cc32)[C@@H](CN2CCN(c3ncccn3)C[C@H]2C)CN1 [Example 53, 1-{6-[(4-Fluorophenyl)methyl]-3,3-dimethyl-1H,2H,3H-pyrrolo[3,2-b]pyridin-1-yl}-2-[(2R,5R)-5-methyl-2-{[(2R)-2-methyl-4-(pyrimidin-2-yl)piperazin-1-yl]methyl}piperazin-1-yl]ethan-1-one, dihydrochloride] was tested, and the inhibition at 0.04 µM [1] was 59%, the EC50 [2, 3] was 0.61 nM and the EC50 [2, 4] was less than 1000 nM.

With C[C@@H]1CN(CC(=O)N2CC(C)(C)c3ncc(Cc4ccc(F)cc4)cc32)[C@@H](CN2CCNC(=O)[C@H]2C)CN1 [Example 35, (3R)-4-{[(2R,5R)-1-(2-{6-[(4-Fluorophenyl)methyl]-3,3-dimethyl-1H,2H,3H-pyrrolo[3,2-b]pyridin-1-yl}-2-oxoethyl)-5-methylpiperazin-2-yl]methyl}-3-methylpiperazin-2-one] the inhibition at 0.04 µM [1] was 54%, the IC50 ([1]; or at least 50% inhibition of the activity at 0.1 μM, read-out: IC50 in the XIAP assay) was less than 0.1 µM and the EC50 [2, 3] was 1.9 nM. It also gave an EC50 [2, 4] of less than 1000 nM.

For CCCC(F)(F)c1cc2c(cn1)C(C)(C)CN2C(=O)CN1C[C@@H](C)NC[C@@H]1CN1CCOC[C@]1(C)CO (single isomer, unassigned) [Example 69, dihydrochloride], the inhibition at 0.04 µM [1] was 71%, the EC50 [2, 3] was 5.6 nM and the EC50 [2, 4] was less than 1000 nM.

Work on C[C@@H]1CN(CC(=O)N2CC(C)(C)c3ncc(Cc4ccc(F)cc4)cc32)[C@@H](CN2CCOC[C@H]2CF)CN1 [Example 19, 2-[(2R,5R)-2-{[(3S)-3-(Fluoromethyl)morpholin-4-yl]methyl}-5-methylpiperazin-1-yl]-1-{6-[(4-fluorophenyl)methyl]-3,3-dimethyl-1H,2H,3H-pyrrolo[3,2-b]pyridin-1-yl}ethan-1-one dihydrochloride] yielded an inhibition at 0.04 µM [1] of 43%, an EC50 [2, 3] of 0.65 nM and an EC50 [2, 4] of less than 1000 nM.

Molecule C[C@@H]1CN(CC(=O)N2CC(C)(C)c3cnc(Cc4ccc(F)cc4)cc32)[C@@H](CN2CCOC[C@@]2(C)CO)CN1 [Example 62, 1-{6-[(4-Fluorophenyl)methyl]-3,3-dimethyl-1H,2H,3H-pyrrolo[3,2-c]pyridin-1-yl}-2-[(2R,5R)-2-{[(3R)-3-(hydroxymethyl)-3-methylmorpholin-4-yl]methyl}-5-methylpiperazin-1-yl]ethan-1-one, dihydrochloride] has an inhibition at 0.04 µM [1] of 60%, an EC50 [2, 3] of 1.1 nM and an EC50 [2, 4] of less than 1000 nM.

For CC(=O)N1CCN(C[C@H]2CN[C@H](C)CN2CC(=O)N2CC(C)(C)c3cnc(Cc4ccc(F)cc4)cc32)[C@H](C)C1 [Example 56, 2-[(2R,5R)-2-{[(2R)-4-Acetyl-2-methylpiperazin-1-yl]methyl}-5-methylpiperazin-1-yl]-1-{6-[(4-fluorophenyl)methyl]-3,3-dimethyl-1H,2H,3H-pyrrolo[3,2-c]pyridin-1-yl}ethan-1-one, dihydrochloride], the inhibition at 0.04 µM [1] was 70%, the EC50 [2, 3] was 0.42 nM and the EC50 [2, 4] was less than 1000 nM.

With C[C@@H]1CN(CC(=O)N2CC(C)(C)c3ncc(Cc4ccc(F)cc4F)cc32)[C@@H](CN2[C@H](C)COC[C@H]2C)CN1 [Example 54, 1-{6-[(2,4-Difluorophenyl)methyl]-3,3-dimethyl-1H,2H,3H-pyrrolo[3,2-b]pyridin-1-yl}-2-[(2R,5R)-2-{[(3R,5R)-3,5-dimethylmorpholin-4-yl]methyl}-5-methylpiperazin-1-yl]ethan-1-one, dihydrochloride] the inhibition at 0.04 µM [1] was 59%, the EC50 [2, 4] was less than 1000 nM and the “EVSA-T prolif (% at concentration)” value ([2]; at 0.001 μM) was 96% at.

C[C@@H]1CN(CC(=O)N2CC(C)(C)c3ncc(Cc4ccc(F)cc4)cc32)[C@@H](CN2CCCCC2C(F)(F)F)CN1 (single isomer, unassigned) [Example 24, 1-{6-[(4-Fluorophenyl)methyl]-3,3-dimethyl-1H,2H,3H-pyrrolo[3,2-b]pyridin-1-yl}-2-[(2R,5R)-5-methyl-2-{[2-([R or S]trifluoromethyl)piperidin-1-yl]methyl}piperazin-1-yl]ethan-1-one hydrochloride] gave an IC50 ([1]; plain number = IC50, average where more than one data point, read-out: Xiap IC50 or PI μM (IC50)) of 0.13 µM, an EC50 ([2]; EVSA-T cells, 72 hours, Alamar Blue, hydrochloride, read-out: EVSA-T prolif) of 13 nM and an EC50 [2, 4] of less than 1000 nM.

Work on C[C@@H]1CN(CC(=O)N2CC(C)(C)c3cnc(Cc4ccc(F)cc4F)cc32)[C@@H](CN2CCOC[C@@]2(C)CO)CN1 (single isomer, unassigned) [Example 67, dihydrochloride] yielded an inhibition at 0.04 µM [1] of 65%, an EC50 [2, 3] of 3.7 nM and an EC50 [2, 4] of less than 1000 nM.

C[C@@H]1CN(CC(=O)N2CC(C)(C)c3ncc(Cc4ccc(F)cc4)cc32)[C@@H](CN2CCNC(=O)C2)CN1 [Example 42, 4-{[(2R,5R)-1-(2-{6-[(4-Fluorophenyl)methyl]-3,3-dimethyl-1H,2H,3H-pyrrolo[3,2-b]pyridin-1-yl}-2-oxoethyl)-5-methylpiperazin-2-yl]methyl}piperazin-2-one dihydrochloride] gave an inhibition at 0.04 µM [1] of 44%, an EC50 [2, 3] of 11 nM and an EC50 [2, 4] of less than 1000 nM.

C[C@@H]1CN(CC(=O)N2CC(C)(C)c3ncc(Cc4ccc(F)cc4)cc32)[C@@H](CN2CCOC[C@H]2CO)CN1 [Example 2, 1-{6-[(4-Fluorophenyl)methyl]-3,3-dimethyl-1H,2H,3H-pyrrolo[3,2-b]pyridin-1-yl}-2-[(2R,5R)-2-{[(3R)-3-(hydroxymethyl)morpholin-4-yl]methyl}-5-methylpiperazin-1-yl]ethan-1-one dihydrochloride] was tested, and the inhibition at 0.04 µM [1] was 40%, the EC50 [2, 3] was 1.7 nM and the EC50 [2, 4] was less than 1000 nM.

C[C@@H]1CN(CC(=O)N2CC(C)(C)c3ncc(C(O)c4cc(F)ccc4F)cc32)[C@@H](CN2[C@H](C)COC[C@H]2C)CN1 (single isomer, unassigned) [Example 116, 1-{(R or S)-6-[(2,5-Difluorophenyl)(hydroxy)meth-yl]-3,3-dimethyl-1H,2H,3H-pyrrolo[3,2-b]pyridin-1-yl}-2-[(2R,5R)-2-{[(3R,5R)-3,5-dimethylmorpholin-4-yl]methyl}-5-methylpiperazin-1-yl]ethan-1-one dihydrochloride] was tested, and the inhibition at 0.04 µM [1] was 47% and the EC50 [2, 5] was 55 nM.

With C[C@@H]1CN(CC(=O)N2CC(C)(C)c3ncc(C(O)c4cccc(F)c4F)cc32)[C@@H](CN2[C@H](C)COC[C@H]2C)CN1 (single isomer, unassigned) [Example 111, (R or S)-1-{6-[(2,3-Difluorophenyl)(hydroxy)meth-yl]-3,3-dimethyl-1H,2H,3H-pyrrolo[3,2-b]pyridin-1-yl}-2-[(2R,5R)-2-{[(3R,5R)-3,5-dimethylmorpholin-4-yl]methyl}-5-methylpiperazin-1-yl]ethan-1-one dihydrochloride] the inhibition at 0.04 µM [1] was 45%, the EC50 [2, 3] was 25 nM and the EC50 [2, 4] was less than 1000 nM.

For C[C@@H]1CN(CC(=O)N2CC(C)(C)c3ncc(Cc4ccc(F)cc4F)cc32)[C@@H](CN2CCOC[C@]2(C)CO)CN1 [Example 57, 1-{6-[(2,4-Difluorophenyl)methyl]-3,3-dimethyl-1H,2H,3H-pyrrolo[3,2-b]pyridin-1-yl}-2-[(2R,5R)-2-{[(3S)-3-(hydroxymethyl)-3-methylmorpholin-4-yl]methyl}-5-methylpiperazin-1-yl]ethan-1-one, dihydrochloride], the inhibition at 0.04 µM [1] was 41%, the EC50 [2, 3] was 2.6 nM and the EC50 [2, 4] was less than 1000 nM.

For C[C@@H]1CN(CC(=O)N2CC(C)(C)c3ncc(Cc4ccc(F)cc4)cc32)[C@@H](CN2CCOC[C@]2(C)CO)CN1 [Example 50, 1-{6-[(4-Fluorophenyl)methyl]-3,3-dimethyl-1H,2H,3H-pyrrolo[3,2-b]pyridin-1-yl}-2-[(2R,5R)-2-{[(3S)-3-(hydroxymethyl)-3-methylmorpholin-4-yl]methyl}-5-methylpiperazin-1-yl]ethan-1-one, dihydrochloride], the inhibition at 0.04 µM [1] was 44%, the EC50 [2, 3] was 1.3 nM and the EC50 [2, 4] was less than 1000 nM.

In the case of C[C@@H]1CN(CC(=O)N2CC(C)(C)c3ncc(Cc4ccccc4)cc32)[C@@H](CN2[C@H](C)COC[C@H]2C)CN1 [Example 29, 1-{6-Benzyl-3,3-dimethyl-1H,2H,3H-pyrrolo[3,2-b]pyridin-1-yl}-2-[(2R,5R)-2-{[(3R,5R)-3,5-dimethylmorpholin-4-yl]methyl}-5-methylpiperazin-1-yl]ethan-1-one dihydrochloride], the inhibition at 0.04 µM [1] is reported as 47%, the EC50 [2, 3] is reported as 0.4 nM and the EC50 [2, 4] is reported as less than 1000 nM.

C[C@@H]1CN(CC(=O)N2CC(C)(C)c3cc(C#N)c(Cc4ccc(F)cc4)cc32)[C@@H](CN2[C@H](C)COC[C@H]2C)CN1 [Example 92, 1-{2-[(2R,5R)-2-{[(3R,5R)-3,5-Dimethylmorpholin-4-yl]methyl}-5-methylpiperazin-1-yl]acetyl}-6-[(4-fluroophenyl)methyl]-3,3-dimethyl-2,3-dihydro-1H-indole-5-carbonitrile dihydrochloride] was tested, and the inhibition at 0.04 µM [1] was 54%, the EC50 [2, 3] was 2.7 nM and the EC50 [2, 4] was less than 1000 nM.
